Source: ChEMBL document CHEMBL1201862, “PubChem BioAssay data set” (2004)
Calls of active or inactive are those of the source.

Key:
[1] = test system: Streptococcus sp. 'group A'; assay: Streptococcus pyogenes SK(-)GAS viability under kanamycin – luminescence, BacTiterGlo, confirmation, counter-screen for streptokinase expression inhibitor project, dose response (AID 1900); assay type: functional, organism-based
[2] = Luminescence Cell-Based Dose Response HTS to Identify Inhibitors of 5'UTR Stem-Loop Driven Prion Protein mRNA Translation in H4 Neuroglioblastoma Cells. [Related pubchem assays: 1827 (Project Summary), 1813 (Primary HTS)]; assay type: functional
[3] = NIH3T3 cell viability loss – ATP luminescence, mouse fibroblasts, counter-screen, dose response (AID 2010); assay type: functional, cell-based;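 further: cells exposed to compound for about 90 hours before reading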
[4] = target: T1, Replicative DNA helicase DnaB (Mycobacterium tuberculosis, UniProt P9WMR3); assay: DnaB intein splicing inhibitors, dose response, biochemical, cell-free fluorescence (AID 449749); assay type: functional
T1 sequence (P9WMR3 whole entry): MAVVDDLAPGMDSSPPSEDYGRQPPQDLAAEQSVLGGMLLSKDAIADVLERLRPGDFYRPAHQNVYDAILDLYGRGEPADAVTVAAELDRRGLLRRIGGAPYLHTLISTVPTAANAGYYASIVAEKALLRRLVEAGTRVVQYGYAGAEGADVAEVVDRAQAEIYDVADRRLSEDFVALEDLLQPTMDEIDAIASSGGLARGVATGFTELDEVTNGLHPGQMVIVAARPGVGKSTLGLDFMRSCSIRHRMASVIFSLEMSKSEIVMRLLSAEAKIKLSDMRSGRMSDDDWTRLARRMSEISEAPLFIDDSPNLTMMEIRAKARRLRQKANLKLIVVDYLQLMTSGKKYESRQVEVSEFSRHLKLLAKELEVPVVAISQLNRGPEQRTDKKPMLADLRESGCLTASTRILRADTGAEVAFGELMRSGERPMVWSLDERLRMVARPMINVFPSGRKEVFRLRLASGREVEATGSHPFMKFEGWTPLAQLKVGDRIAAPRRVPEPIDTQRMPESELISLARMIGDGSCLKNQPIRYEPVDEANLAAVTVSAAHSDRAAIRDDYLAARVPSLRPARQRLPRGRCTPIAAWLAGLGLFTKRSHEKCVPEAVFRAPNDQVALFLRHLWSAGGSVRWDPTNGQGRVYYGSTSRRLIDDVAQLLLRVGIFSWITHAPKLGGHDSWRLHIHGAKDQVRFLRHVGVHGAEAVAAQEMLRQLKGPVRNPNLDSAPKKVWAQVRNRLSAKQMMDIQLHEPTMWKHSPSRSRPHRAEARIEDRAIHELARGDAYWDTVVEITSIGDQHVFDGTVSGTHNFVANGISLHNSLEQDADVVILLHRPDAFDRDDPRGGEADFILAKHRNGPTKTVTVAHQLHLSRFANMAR

[5] = target: ATP-dependent molecular chaperone HSP82 (Candida albicans (strain WO-1) (Yeast), UniProt C4YTQ8); assay: steroid-induced GRE reporter decrease in yeast – S. cerevisiae, luminescence, Hsp90 inhibitor project, dose response (AID 2400); assay type: functional, cell-based;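 further: beta-galactosidase luminescence from glucocorticoid response element reporter as proxy for Hsp90 function; inhibitor potency where signal loss means Hsp90 inhibition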
[6] = target: Estrogen receptor beta (Homo sapiens, UniProt Q92731);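 further: recombinant ER-beta bound to coactivator SRC1 peptide in presence of estradiol agonist; inhibitors block coactivator peptide binding and lower the FRET signal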
Chain of Estrogen receptor beta (Q92731 whole entry): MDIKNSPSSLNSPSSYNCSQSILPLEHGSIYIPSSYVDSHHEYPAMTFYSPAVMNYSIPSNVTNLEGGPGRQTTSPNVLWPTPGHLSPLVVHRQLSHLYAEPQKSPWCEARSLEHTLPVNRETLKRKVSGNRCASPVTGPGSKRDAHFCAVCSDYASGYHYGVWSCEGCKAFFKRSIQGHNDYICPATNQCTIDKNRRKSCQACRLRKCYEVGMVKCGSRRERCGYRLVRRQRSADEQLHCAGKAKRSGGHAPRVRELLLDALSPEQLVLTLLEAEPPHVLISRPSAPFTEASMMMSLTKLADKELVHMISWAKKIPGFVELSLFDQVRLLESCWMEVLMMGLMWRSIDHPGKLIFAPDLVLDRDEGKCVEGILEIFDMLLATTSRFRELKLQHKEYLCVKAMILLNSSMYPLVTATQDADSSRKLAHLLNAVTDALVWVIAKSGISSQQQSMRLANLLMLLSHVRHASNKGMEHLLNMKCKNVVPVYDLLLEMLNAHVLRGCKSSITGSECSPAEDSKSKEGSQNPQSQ

[7] = test system: HT-1080; assay: HT1080 cell viability loss – fluorescence readout (AID 620); assay type: functional, cell-based; details: Homo sapiens
[8] = target: T2, Sentrin-specific protease 8 (Homo sapiens, UniProt Q96LD8); assay type: functional;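 further: luminescence read-out of SENP8 inhibition, dose-response confirmation following an ultra-high-throughput screen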
T2 sequence (Q96LD8 whole entry): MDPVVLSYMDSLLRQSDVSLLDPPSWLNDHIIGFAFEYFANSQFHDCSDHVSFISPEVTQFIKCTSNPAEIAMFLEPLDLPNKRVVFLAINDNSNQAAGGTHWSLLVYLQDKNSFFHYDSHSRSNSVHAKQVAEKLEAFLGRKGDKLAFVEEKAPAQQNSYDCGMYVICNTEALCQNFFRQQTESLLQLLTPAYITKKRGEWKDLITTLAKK

[9] = target: Protein kinase C theta type (Homo sapiens, UniProt Q04759); assay: Navigating the Kinome. Panel member name: PRKCQ; assay type: functional
[10] = target: Tyrosine-protein kinase JAK2 (Homo sapiens, UniProt O60674); assay type: functional;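 further: JAK2 tested as one member of a kinase panel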
[11] = target: 5'-AMP-activated protein kinase catalytic subunit alpha-1 (Homo sapiens, UniProt Q13131); assay type: functional
[12] = target: Serine/threonine-protein kinase pim-1 (Homo sapiens, UniProt P11309); assay type: functional
Chain of Serine/threonine-protein kinase pim-1 (P11309 whole entry): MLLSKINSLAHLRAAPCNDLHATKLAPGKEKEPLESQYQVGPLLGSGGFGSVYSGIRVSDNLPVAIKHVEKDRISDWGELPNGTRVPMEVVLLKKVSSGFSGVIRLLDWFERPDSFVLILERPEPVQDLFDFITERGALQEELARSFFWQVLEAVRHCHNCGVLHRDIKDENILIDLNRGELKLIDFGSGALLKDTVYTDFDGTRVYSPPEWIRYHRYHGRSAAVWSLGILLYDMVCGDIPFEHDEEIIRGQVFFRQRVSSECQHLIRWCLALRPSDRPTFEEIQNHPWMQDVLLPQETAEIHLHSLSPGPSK

[13] = target: Mitogen-activated protein kinase 9 (Homo sapiens, UniProt P45984); assay type: functional;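 further: value from a kinome panel profiling assay, MAPK9 panel entry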
Chain of Mitogen-activated protein kinase 9 (P45984 whole entry): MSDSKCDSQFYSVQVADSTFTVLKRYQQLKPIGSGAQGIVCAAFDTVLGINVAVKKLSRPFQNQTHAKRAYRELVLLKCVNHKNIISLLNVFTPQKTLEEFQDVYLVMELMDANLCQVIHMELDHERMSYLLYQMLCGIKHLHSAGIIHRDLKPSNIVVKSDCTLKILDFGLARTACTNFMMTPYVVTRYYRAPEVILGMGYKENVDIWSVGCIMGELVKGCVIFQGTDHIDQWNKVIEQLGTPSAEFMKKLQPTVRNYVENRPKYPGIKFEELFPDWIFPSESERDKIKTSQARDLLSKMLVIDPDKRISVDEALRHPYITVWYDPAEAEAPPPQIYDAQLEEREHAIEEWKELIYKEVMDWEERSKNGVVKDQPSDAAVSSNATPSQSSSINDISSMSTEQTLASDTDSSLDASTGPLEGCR

[14] = target: Serine/threonine-protein kinase TAO1 (Homo sapiens, UniProt Q7L7X3); assay type: functional
Chain of Serine/threonine-protein kinase TAO1 (Q7L7X3 whole entry): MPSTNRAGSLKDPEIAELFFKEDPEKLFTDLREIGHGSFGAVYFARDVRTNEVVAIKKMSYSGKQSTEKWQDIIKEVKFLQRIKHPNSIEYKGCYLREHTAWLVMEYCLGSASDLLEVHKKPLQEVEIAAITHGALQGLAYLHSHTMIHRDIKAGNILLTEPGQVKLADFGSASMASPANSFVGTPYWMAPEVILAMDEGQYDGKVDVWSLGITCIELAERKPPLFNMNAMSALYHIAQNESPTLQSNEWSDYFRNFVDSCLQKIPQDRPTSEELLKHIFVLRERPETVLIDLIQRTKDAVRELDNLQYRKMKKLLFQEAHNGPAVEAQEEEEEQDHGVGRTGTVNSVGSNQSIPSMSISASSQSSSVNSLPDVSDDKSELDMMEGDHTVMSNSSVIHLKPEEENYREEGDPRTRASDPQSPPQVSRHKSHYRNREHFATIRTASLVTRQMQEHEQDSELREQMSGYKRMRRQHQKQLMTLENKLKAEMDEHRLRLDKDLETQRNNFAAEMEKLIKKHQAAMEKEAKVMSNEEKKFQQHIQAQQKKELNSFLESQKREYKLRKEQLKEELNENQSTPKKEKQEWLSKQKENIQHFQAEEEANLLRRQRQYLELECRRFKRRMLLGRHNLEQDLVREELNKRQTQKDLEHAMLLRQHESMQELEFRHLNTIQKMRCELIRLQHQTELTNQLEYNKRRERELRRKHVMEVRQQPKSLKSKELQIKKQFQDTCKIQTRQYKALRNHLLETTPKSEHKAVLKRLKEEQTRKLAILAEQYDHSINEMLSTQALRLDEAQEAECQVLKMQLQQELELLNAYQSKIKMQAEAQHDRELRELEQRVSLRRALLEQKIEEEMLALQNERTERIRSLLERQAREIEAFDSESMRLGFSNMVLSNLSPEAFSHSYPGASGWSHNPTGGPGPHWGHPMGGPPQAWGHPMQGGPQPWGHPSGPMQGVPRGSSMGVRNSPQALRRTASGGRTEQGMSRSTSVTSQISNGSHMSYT

[15] = target: Glycogen synthase kinase-3 alpha (Homo sapiens, UniProt P49840); assay type: functional;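 further: GSK3A result taken from a broad kinome-wide kinase panel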
[16] = target: Mitogen-activated protein kinase kinase kinase kinase 2 (Homo sapiens, UniProt Q12851); assay type: functional;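 further: measured as one member of a kinome-wide kinase panel, with MAP4K2 as the panel entry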
[17] = target: Activated CDC42 kinase 1 (Homo sapiens, UniProt Q07912); assay: Navigating the Kinome. Panel member name: ACK1; assay type: functional
[18] = target: G protein-coupled receptor kinase 5 (Homo sapiens, UniProt P34947); assay: Navigating the Kinome. Panel member name: GPRK5; assay type: functional
Chain of G protein-coupled receptor kinase 5 (P34947 whole entry): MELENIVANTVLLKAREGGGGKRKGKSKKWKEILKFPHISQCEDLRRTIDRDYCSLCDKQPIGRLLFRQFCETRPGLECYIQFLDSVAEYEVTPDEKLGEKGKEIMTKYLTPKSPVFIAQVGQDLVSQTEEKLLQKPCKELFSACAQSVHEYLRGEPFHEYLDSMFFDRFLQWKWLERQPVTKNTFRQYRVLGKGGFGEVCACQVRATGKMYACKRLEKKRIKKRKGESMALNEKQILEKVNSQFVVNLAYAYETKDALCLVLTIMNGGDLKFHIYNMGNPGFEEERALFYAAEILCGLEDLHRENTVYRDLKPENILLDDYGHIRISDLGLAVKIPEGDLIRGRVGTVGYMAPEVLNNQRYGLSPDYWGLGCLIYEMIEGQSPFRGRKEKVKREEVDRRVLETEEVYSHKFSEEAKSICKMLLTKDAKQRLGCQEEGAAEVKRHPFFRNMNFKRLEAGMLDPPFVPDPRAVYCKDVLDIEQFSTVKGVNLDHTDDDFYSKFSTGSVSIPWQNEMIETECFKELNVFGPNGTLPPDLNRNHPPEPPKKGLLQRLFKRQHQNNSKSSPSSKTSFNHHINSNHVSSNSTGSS

[19] = target: Insulin-like growth factor 1 receptor (Homo sapiens, UniProt P08069); assay: Navigating the Kinome. Panel member name: IGF1R; assay type: functional
[20] = target: Dual specificity tyrosine-phosphorylation-regulated kinase 1B (Homo sapiens, UniProt Q9Y463); assay: Navigating the Kinome. Panel member name: DYRK1B; assay type: functional
Chain of Dual specificity tyrosine-phosphorylation-regulated kinase 1B (Q9Y463 whole entry): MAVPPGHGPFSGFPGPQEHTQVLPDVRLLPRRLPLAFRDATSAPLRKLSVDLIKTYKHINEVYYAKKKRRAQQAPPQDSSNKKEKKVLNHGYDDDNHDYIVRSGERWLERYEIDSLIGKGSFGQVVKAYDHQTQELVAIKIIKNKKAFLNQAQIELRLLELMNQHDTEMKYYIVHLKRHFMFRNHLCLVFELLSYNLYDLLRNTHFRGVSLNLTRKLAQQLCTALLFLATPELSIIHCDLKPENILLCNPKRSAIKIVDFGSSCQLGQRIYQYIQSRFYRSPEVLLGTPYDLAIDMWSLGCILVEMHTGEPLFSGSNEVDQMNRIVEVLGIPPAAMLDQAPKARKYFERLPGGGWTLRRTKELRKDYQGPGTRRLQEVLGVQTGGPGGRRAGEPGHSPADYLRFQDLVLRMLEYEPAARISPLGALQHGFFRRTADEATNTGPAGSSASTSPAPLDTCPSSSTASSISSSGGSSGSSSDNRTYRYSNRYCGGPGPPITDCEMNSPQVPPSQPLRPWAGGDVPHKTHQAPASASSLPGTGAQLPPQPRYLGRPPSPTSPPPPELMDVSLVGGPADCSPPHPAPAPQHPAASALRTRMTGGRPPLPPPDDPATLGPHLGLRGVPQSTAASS

[21] = target: Rho-associated protein kinase 1 (Homo sapiens, UniProt Q13464); assay type: functional;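 further: measured within a broad kinome-wide panel profiling many kinases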
Chain of Rho-associated protein kinase 1 (Q13464 whole entry): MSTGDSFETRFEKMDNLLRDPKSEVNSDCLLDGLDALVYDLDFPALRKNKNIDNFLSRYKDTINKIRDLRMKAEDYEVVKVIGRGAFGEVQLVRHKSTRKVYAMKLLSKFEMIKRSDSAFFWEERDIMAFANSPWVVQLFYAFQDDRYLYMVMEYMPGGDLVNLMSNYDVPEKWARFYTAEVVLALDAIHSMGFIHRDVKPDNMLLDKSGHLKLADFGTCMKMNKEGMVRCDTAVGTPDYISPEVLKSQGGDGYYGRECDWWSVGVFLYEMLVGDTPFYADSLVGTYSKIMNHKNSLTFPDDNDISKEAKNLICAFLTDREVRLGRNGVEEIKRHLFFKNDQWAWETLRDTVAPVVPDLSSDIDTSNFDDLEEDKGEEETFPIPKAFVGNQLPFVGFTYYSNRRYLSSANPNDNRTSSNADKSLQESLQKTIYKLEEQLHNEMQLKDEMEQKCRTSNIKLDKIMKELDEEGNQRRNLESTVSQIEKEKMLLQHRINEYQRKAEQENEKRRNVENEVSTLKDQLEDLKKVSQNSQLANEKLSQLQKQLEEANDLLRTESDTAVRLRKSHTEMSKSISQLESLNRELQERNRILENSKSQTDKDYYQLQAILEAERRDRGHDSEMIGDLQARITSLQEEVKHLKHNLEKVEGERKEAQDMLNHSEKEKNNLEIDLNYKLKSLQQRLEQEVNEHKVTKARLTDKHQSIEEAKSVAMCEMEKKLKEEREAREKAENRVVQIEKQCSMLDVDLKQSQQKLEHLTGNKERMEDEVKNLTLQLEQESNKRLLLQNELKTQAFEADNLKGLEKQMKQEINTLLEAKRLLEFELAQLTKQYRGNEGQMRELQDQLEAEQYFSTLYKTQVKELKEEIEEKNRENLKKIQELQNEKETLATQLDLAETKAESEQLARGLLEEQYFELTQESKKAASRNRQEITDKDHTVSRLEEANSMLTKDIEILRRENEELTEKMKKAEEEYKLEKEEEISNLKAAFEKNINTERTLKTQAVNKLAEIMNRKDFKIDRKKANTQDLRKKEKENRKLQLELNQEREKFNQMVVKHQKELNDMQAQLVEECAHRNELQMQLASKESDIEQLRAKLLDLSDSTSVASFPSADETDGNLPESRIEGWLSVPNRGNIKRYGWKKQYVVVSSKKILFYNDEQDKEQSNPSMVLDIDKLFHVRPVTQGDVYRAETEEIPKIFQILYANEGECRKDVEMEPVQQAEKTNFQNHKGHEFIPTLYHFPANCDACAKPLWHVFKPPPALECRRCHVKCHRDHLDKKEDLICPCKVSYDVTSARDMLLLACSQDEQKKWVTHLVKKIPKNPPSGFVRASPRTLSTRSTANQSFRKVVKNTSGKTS

[22] = target: Tyrosine-protein kinase Fyn (Homo sapiens, UniProt P06241); assay type: functional
[23] = target: Cyclin-dependent kinase 8 (Homo sapiens, UniProt P49336); assay: Navigating the Kinome. Panel member name: CDK8; assay type: functional
[24] = target: Vascular endothelial growth factor receptor 1 (Homo sapiens, UniProt P17948); assay type: functional;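 further: measured within a kinome-wide profiling panel, FLT1 as the panel member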
[25] = target: Mitogen-activated protein kinase kinase kinase kinase 4 (Homo sapiens, UniProt O95819); assay type: functional
[26] = target: Macrophage-stimulating protein receptor (Homo sapiens, UniProt Q04912); assay: Navigating the Kinome. Panel member name: MST1R; assay type: functional

CN1CCN(C(c2ccc(C(F)(F)F)cc2)c2cc(Cl)c3cccnc3c2O)CC1 (stereo unspecified)
EC50 [1]: 0.558 µM (active) | EC50 [2]: 9.3 µM (active) | EC50 [3]: 6.54 µM (active) | AC50 [4]: 11.9 µM (active) | EC50 [5]: 6.72 µM (active)

NC(=O)c1c(NC(=O)c2cc3ccccc3o2)sc2c1CCC2
IC50 [6]: > 50 µM (not active) | EC50 [7]: > 50 µM (not active) | IC50 [8]: 12.4 µM (active)

O=C(NC(CCO)c1ccccc1)c1ccc(-c2ccncc2)cc1 (stereo unspecified)
Ki [9]: 1.58 µM (active) | Ki [10]: > 2.51 µM (inactive) | Ki [11]: > 3.16 µM (inactive) | Ki [12]: > 6.31 µM (inactive) | Ki [13]: > 3.98 µM (inactive) | Ki [14]: > 6.31 µM (inactive) | Ki [15]: 1.26 µM (active) | Ki [16]: > 2.51 µM (inactive) | Ki [17]: > 3.98 µM (inactive) | Ki [18]: > 3.98 µM (inactive) | Ki [19]: > 2.51 µM (inactive) | Ki [20]: > 2.51 µM (inactive) | Ki [21]: 0.00631 µM (active) | Ki [22]: > 6.31 µM (inactive) | Ki [23]: 2.51 µM (active) | Ki [24]: > 3.98 µM (inactive) | Ki [25]: > 5.01 µM (inactive) | Ki [26]: > 3.98 µM (inactive)
